Experimental data from patent US12209075B2, “Pyridine-sulfonamide derivatives as sodium channel inhibitors” (GENENTECH, INC., priority 2018, dated 2025).
Counter-ions that a name gives are not always drawn.

Molecular target: hNav1.7 (Homo sapiens (Human), UniProt Q15858)
Assay: Tritiated compound binding to membranes from cells expressing hNav1.7 and the β1 subunit (Nav1.7 LBA EVO)
Conditions: competitive binding vs [3H]compound, membranes with hNav1.7 and β1 subunit
Description: Example 64a. Tritiated Compound Binding to Membranes Isolated from Cells that Heterologously Express hNav1.7 and the β1 Subunit
Preparation of membranes containing recombinantly expressed sodium channels: Frozen recombinant cell pellets are thawed on ice and diluted to 4 times the cell pellet weight with ice cold 50 mM Tris HCl, pH 7.4 buffer. The cell suspensions are homogenized on ice using a motorized glass dounce homogeniser. Homogenates are further diluted 8.4 times with ice cold 50 mM Tris HCl, pH 7.4 buffer and then centrifuged at 200×g at 4° C. for 15 minutes. The supernatants are collected and centrifuged at 10000×g at 4° C. for 50 min. The pellets are then re-suspended in 100 mM NaCl, 20 mM Tris HCl, pH 7.4 buffer containing 1% v/v protease inhibitors (Calbiochem) and re-homogenized on ice. The homogenized membranes are then processed through a syringe equipped with a 26 gauge needle. Protein concentrations arer determined by Bradford Assay and the membranes are stored at −80° C.
Radioligand Binding Studies: Saturation experiments. A competitive NaV1.7 inhibitor having a methyl group is tritiated. Three tritiums are incorporated in place of methyl hydrogens to generate [^3H]compound. Binding of this radioligand is performed in 5 mL borosilicate glass test tubes at room temperature. Binding is initiated by adding membranes to increasing concentrations of [^3H]compound in 100 mM NaCl, 20 mM Tris HCl, pH 7.4 buffer containing 0.01% w/v bovine serum albumin (BSA) for 18 h. Non-specific binding is determined in the presence of 1 μM unlabeled compound. After 18 h, the reactants are filtered through GF/C glass fiber filters presoaked in 0.5% w/v polyethylene imine. Filters are washed with 15 mL ice cold 100 mM NaCl, 20 mM Tris HCl, pH7.4 buffer containing 0.25% BSA to separate bound from free ligand. [^3H]compound bound to filters is quantified by liquid scintillation counting.
Competitive binding experiments: Binding reactions are performed in 96-well polypropylene plates at room temperature for 18 h. In 360 μL, membranes are incubated with 100 pM [^3H]compound and increasing concentrations of Test Compound. Non-specific binding is defined in the presence of 1 μM unlabeled compound. Reactions are transferred and filtered through 96-well glass fiber/C filter plates presoaked with 0.5% polyethylene imine. The filtered reactions are washed 5 times with 200 μL ice cold buffer containing 0.25% BSA. Bound radioactivity is determined by liquid scintillation counting.
Data Analysis: For saturation experiments, non-specific binding is subtracted from total binding to provide specific binding and these values are recalculated in terms of pmol ligand bound per mg protein. Saturation curves are constructed and dissociation constants are calculated using the single site ligand binding model: Beq=(Bmax*X)/(X+Kd), where Beq is the amount of ligand bound at equilibrium, Bmax is the maximum receptor density, Kd is the dissociation constant for the ligand, and X is the free ligand concentration. For competition studies percent inhibition is determined and IC50 values are calculated using a 4 parameter logistic model (% inhibition=(A+((B−A)/(1+((x/C)^D)))) using XLfit, where A and B are the maximal and minimum inhibition respectively, C is the IC50 concentration and D is the (Hill) slope.
Example 64b. Tritiated Compound Binding to Membranes Isolated from Cells that Heterologous Express hNav1.7 and the β1 Subunit
Preparation of membranes containing recombinantly expressed sodium channels: Following the procedure described in 31a, and making modifications as required to: centrifuge supernatants at 100000×g instead of 10000×g; re-suspend pellets in a buffer containing 0.01% BSA in addition to 100 mM NaCl, 20 mM Tris HCl, pH 7.4 buffer, and 1% v/v […]; and storing membranes at −80° C. in single use aliquots instead of pooled. […]

Chain of hNav1.7 (Q15858 whole entry, looked up): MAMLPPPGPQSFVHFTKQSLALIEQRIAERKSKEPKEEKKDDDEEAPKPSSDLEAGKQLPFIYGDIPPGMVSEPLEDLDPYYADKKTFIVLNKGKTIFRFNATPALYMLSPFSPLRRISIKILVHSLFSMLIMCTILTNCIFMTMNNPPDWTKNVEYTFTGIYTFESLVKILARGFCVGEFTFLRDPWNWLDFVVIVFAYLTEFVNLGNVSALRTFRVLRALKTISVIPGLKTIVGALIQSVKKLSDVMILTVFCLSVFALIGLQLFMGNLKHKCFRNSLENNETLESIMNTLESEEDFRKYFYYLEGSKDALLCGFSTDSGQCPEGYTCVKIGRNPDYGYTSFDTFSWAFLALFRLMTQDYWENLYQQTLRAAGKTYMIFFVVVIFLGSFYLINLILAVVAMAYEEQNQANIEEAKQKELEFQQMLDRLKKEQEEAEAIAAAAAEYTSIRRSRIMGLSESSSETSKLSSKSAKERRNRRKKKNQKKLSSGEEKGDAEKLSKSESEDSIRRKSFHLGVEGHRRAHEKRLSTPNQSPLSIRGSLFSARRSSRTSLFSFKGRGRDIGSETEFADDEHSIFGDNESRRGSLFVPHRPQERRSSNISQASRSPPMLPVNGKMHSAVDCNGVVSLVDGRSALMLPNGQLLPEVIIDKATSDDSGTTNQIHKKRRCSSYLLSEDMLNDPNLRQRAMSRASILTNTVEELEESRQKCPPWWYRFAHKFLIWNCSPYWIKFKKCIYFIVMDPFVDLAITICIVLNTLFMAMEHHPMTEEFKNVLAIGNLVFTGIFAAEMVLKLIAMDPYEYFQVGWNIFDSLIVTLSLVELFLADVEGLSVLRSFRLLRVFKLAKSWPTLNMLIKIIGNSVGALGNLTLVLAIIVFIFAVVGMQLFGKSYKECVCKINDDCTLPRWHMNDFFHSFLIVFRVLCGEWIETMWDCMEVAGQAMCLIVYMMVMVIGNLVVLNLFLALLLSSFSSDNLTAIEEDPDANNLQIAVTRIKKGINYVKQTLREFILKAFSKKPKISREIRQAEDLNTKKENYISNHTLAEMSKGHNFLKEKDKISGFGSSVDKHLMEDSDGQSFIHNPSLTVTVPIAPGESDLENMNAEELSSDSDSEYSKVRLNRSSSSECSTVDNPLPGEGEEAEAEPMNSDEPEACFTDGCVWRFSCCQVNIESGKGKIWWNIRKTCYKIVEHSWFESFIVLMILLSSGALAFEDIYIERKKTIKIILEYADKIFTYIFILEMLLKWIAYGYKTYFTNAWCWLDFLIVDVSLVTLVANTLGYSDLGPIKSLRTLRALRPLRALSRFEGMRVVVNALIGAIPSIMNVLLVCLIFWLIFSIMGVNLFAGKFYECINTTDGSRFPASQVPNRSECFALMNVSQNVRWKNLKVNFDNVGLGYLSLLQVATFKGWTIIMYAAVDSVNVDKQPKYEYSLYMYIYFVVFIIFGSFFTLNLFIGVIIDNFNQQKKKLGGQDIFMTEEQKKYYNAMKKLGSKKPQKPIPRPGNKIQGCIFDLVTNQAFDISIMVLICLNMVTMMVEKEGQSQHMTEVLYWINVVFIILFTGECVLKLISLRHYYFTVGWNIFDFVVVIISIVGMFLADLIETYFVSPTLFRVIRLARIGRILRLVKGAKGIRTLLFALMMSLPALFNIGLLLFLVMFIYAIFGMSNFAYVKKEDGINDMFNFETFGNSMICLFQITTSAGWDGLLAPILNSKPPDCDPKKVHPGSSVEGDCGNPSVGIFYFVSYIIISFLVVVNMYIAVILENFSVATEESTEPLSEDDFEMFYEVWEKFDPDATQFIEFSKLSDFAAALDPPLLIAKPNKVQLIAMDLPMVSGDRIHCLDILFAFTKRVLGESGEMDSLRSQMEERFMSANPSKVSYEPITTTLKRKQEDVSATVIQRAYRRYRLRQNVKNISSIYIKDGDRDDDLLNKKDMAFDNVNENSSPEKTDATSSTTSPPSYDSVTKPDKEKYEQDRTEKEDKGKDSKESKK
Chain of hNav1.7 (Q07699 whole entry partner, looked up): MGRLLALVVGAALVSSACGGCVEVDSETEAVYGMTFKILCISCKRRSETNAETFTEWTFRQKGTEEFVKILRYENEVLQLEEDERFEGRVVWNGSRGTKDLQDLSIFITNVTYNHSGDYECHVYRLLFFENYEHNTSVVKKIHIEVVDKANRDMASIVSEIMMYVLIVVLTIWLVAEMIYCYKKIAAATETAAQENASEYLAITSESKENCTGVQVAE

`Cc1nc(O[C@H]2CC[C@H](c3cc(Cl)ccc3Cl)C[C@@H]2N(C)C)ccc1S(=O)(=O)Nc1ccncn1` [Example 39, 6-(((1S,2S,4S)-4-(2,5-dichlorophenyl)-2-(dimethylamino)cyclohexyl)oxy)-2-methyl-N-(pyrimidin-4-yl)pyridine-3-sulfonamide formate] and `Cc1nc(O[C@H]2CC[C@H](c3ccc(Cl)c(C(F)(F)F)c3)C[C@@H]2N(C)C)ccc1S(=O)(=O)Nc1ccncn1` [Example 36, 6-(((1S,2S,4S)-4-(4-chloro-3-(trifluoromethyl)phenyl)-2-(dimethylamino)cyclohexyl)oxy)-2-methyl-N-(pyrimidin-4-yl)pyridine-3-sulfonamide] are within 1.5-fold of each other in IC50: 0.935 nM for the first, 1.28 nM for the second.

`CN(C)[C@H]1C[C@@H](c2cccc(C(F)(F)F)c2)CC[C@@H]1Oc1ncc(S(=O)(=O)Nc2ccncn2)cc1C(F)(F)F` [Example 14, 6-(((1S,2S,4S)-2-(dimethylamino)-4-(3-(trifluoromethyl)phenyl)cyclohexyl)oxy)-N-(pyrimidin-4-yl)-5-(trifluoromethyl)pyridine-3-sulfonamide] and `Cc1cc(S(=O)(=O)Nc2ccncn2)cnc1O[C@H]1CC[C@H](c2cccc(C(F)(F)F)c2)C[C@@H]1N(C)C` [Example 15, 6-(((1S,2S,4S)-2-(Dimethylamino)-4-(3-(trifluoromethyl)phenyl)cyclohexyl)oxy)-5-methyl-N-(pyrimidin-4-yl)pyridine-3-sulfonamide] are within 1.5-fold of each other in IC50: 43.7 nM for the first, 40.8 nM for the second.

Compared with `CN(C)[C@H]1C[C@@H](c2cccc(C(F)(F)F)c2)CC[C@@H]1Oc1ccc(S(=O)(=O)Nc2ccncn2)cn1` [Example 1, 6-(((1S,2S,4S)-2-(Dimethylamino)-4-(3-(trifluoromethyl)phenyl)cyclohexyl)oxy)-N-(pyrimidin-4-yl)pyridine-3-sulfonamide], `CN(C)[C@H]1C[C@@H](c2ccc(Cl)c(C(F)(F)F)c2)CC[C@@H]1Oc1ccc(S(=O)(=O)Nc2ccncn2)cn1` [Example 12, 6-(((1S,2S,4S)-4-(4-chloro-3-(trifluoromethyl)phenyl)-2-(dimethylamino)cyclohexyl)oxy)-N-(pyrimidin-4-yl)pyridine-3-sulfonamide formate] is 22-fold lower in IC50: 28.2 nM for the first, 1.27 nM for the second.

`CN(C)[C@H]1C[C@@H](c2cc(C(F)(F)F)ccc2F)CC[C@@H]1Oc1ccc(S(=O)(=O)Nc2ccncn2)c(Cl)n1` [Example 44, 2-Chloro-6-(((1S,2S,4S)-2-(dimethylamino)-4-(2-fluoro-5-(trifluoromethyl)phenyl)-cyclohexyl)oxy)-N-(pyrimidin-4-yl)pyridine-3-sulfonamide formate] and `Cc1ccc(C(F)(F)F)cc1[C@H]1CC[C@H](Oc2ccc(S(=O)(=O)Nc3ccncn3)c(C)n2)[C@@H](N(C)C)C1` [Example 54, 6-(((1S,2S,4S)-2-(dimethylamino)-4-(2-methyl-5-(trifluoromethyl)phenyl)cyclohexyl)oxy)-2-methyl-N-(pyrimidin-4-yl)pyridine-3-sulfonamide] are within 1.5-fold of each other in IC50: 0.72 nM for the first, 0.695 nM for the second.

Compared with `COc1cc(S(=O)(=O)Nc2ccncn2)cnc1O[C@H]1CC[C@H](c2cccc(C(F)(F)F)c2)C[C@@H]1N(C)C` [Example 61, 6-(((1S,2S,4S)-2-(Dimethylamino)-4-(3-(trifluoromethyl)phenyl)cyclohexyl)oxy)-5-methoxy-N-(pyrimidin-4-yl)pyridine-3-sulfonamide formate], `CCc1cc(S(=O)(=O)Nc2ccncn2)cnc1O[C@H]1CC[C@H](c2cccc(C(F)(F)F)c2)C[C@@H]1N(C)C` [Example 24, 6-(((1S,2S,4S)-2-(Dimethylamino)-4-(3-(trifluoromethyl)phenyl)cyclohexyl)oxy)-5-ethyl-N-(pyrimidin-4-yl)pyridine-3-sulfonamide formate] is 35-fold higher in IC50: 1.9 nM for the first, 66.4 nM for the second. The first is the more potent here.

First: CN(C)[C@H]1C[C@@H](c2cccc(OC(F)(F)F)c2)CC[C@@H]1Oc1ncc(S(=O)(=O)Nc2ccncn2)cc1Cl [Example 13, 5-chloro-6-(((1S,2S,4S)-2-(dimethylamino)-4-(3-(trifluoromethoxy)phenyl)cyclohexyl)oxy)-N-(pyrimidin-4-yl)pyridine-3-sulfonamide]
Second: CN(C)[C@H]1C[C@@H](c2cccc(C(F)(F)F)c2)CC[C@@H]1Nc1ncc(S(=O)(=O)Nc2ccncn2)cc1Cl [Example 4, 5-Chloro-6-(((1S,2S,4S)-2-(dimethylamino)-4-(3-(trifluoromethyl)phenyl)cyclohexyl)amino)-N-(pyrimidin-4-yl)pyridine-3-sulfonamide]
The IC50 of the first is 1.7-fold higher: 13.8 nM for the first, 8.3 nM for the second. The second is the more potent here.

`Cc1nc(O[C@H]2CC[C@H](c3cccc(C(F)(F)F)c3)C[C@@H]2N(C)C2CCC2)ccc1S(=O)(=O)Nc1ccncn1` [Example 35, 6-(((1S,2S,4S)-2-(Cyclobutyl(methyl)amino)-4-(3-(trifluoromethyl)phenyl)cyclohexyl)oxy)-2-methyl-N-(pyrimidin-4-yl)pyridine-3-sulfonamide] and `CCN(C)[C@H]1C[C@@H](c2cccc(C(F)(F)F)c2)CC[C@@H]1Oc1ccc(S(=O)(=O)Nc2ccncn2)c(C)n1` [Example 48, 6-(((1S,2S,4S)-2-(Ethyl(methyl)amino)-4-(3-(trifluoromethyl)phenyl)cyclohexyl)oxy)-2-methyl-N-(pyrimidin-4-yl)pyridine-3-sulfonamide] are within 1.5-fold of each other in IC50: 1.12 nM for the first, 0.75 nM for the second.

`Cc1nc(O[C@H]2CC[C@H](c3ccc(Cl)c(C(F)(F)F)n3)C[C@@H]2N(C)C)ccc1S(=O)(=O)Nc1ccncn1` [Example 62, 6-(((1S,2S,4S)-4-(5-chloro-6-(trifluoromethyl)pyridin-2-yl)-2-(dimethylamino)-cyclohexyl)oxy)-2-methyl-N-(pyrimidin-4-yl)pyridine-3-sulfonamide] and `Cc1ccc([C@H]2CC[C@H](Oc3ccc(S(=O)(=O)Nc4ccncn4)c(C)n3)[C@@H](N(C)C)C2)cc1C(F)(F)F` [Example 56, 6-(((1S,2S,4S)-2-(dimethylamino)-4-(4-methyl-3-(trifluoromethyl)phenyl)cyclohexyl)oxy)-2-methyl-N-(pyrimidin-4-yl)pyridine-3-sulfonamide formate] are within 1.5-fold of each other in IC50: 1.89 nM for the first, 1.32 nM for the second.

Going from `Cc1nc(O[C@H]2CC[C@H](c3cccc(C(F)(F)F)c3)C[C@@H]2N2CCCC2)ccc1S(=O)(=O)Nc1ccncn1` [Example 29, 2-Methyl-N-(pyrimidin-4-yl)-6-(((1S,2S,4S)-2-(pyrrolidin-1-yl)-4-(3-(trifluoromethyl)phenyl)-cyclohexyl)oxy)pyridine-3-sulfonamide] to `Cc1nc(O[C@H]2CC[C@H](c3cccc(OC(F)(F)F)c3)C[C@@H]2N2CCCC2)ccc1S(=O)(=O)Nc1ccncn1` [Example 30, 2-Methyl-N-(pyrimidin-4-yl)-6-(((1S,2S,4S)-2-(pyrrolidin-1-yl)-4-(3-(trifluoromethoxy)phenyl)-cyclohexyl)oxy)pyridine-3-sulfonamide], the IC50 falls from 67.4 nM to 16.6 nM (4.1-fold).

First: Cc1cc([C@H]2CC[C@H](Oc3ccc(S(=O)(=O)Nc4ccncn4)c(C)n3)[C@@H](N(C)C)C2)cc(C(F)(F)F)c1 [Example 58, 6-(((1S,2S,4S)-2-(dimethylamino)-4-(3-methyl-5-(trifluoromethyl)phenyl)cyclohexyl)oxy)-2-methyl-N-(pyrimidin-4-yl)pyridine-3-sulfonamide]
Second: Cc1nc(O[C@H]2CC[C@H](c3cc(Cl)cc(C(F)(F)F)c3)C[C@@H]2N(C)C)ccc1S(=O)(=O)Nc1ccncn1 [Example 49, 6-(((1S,2S,4S)-4-(3-chloro-5-(trifluoromethyl)phenyl)-2-(dimethylamino)cyclohexyl)oxy)-2-methyl-N-(pyrimidin-4-yl)pyridine-3-sulfonamide]
The IC50 of the first is 2.4-fold higher: 2.86 nM for the first, 1.2 nM for the second. The second is the more potent here.

`O=S(=O)(Nc1ccncn1)c1cnc(O[C@H]2CC[C@H](c3cccc(C(F)(F)F)n3)C[C@@H]2N2CCCC2)c(Cl)c1` [Example 40, 5-chloro-N-(pyrimidin-4-yl)-6-(((1S,2S,4S)-2-(pyrrolidin-1-yl)-4-(6-(trifluoromethyl)pyridin-2-yl)cyclohexyl)oxy)pyridine-3-sulfonamide] showed an IC50 of 0.955 nM.
